Source: the supplement of paper PMC11208160

assay: recombinant barcode read abundance after kanamycin selection (control-corrected) (log10(CPM+1)); higher = more efficient recombination; sequences stand for … in AGTGCAGAGAAAATCGGCCAGTTTTCTCTGCCTGCAGTCCGCATGCCGT…ATTTATGCAGCGGACTGCCTTTCTCCCAAAGTGATAAACCGGACAGTATCATGGACCGGTTTTCCCGGTAATCCGTATTTGCAAGGTTGGTTTCACT; site = the 11-nt target
Method in brief: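 Duplicate cultures were plated either on chloramphenicol/ampicillin LB agar, serving as control, or on chloramphenicol/ampicillin/kanamycin with 0.1 mM IPTG. These came from a pooled E. coli library co-electroporated with a donor plasmid, each member pairing a target with an IS621 bridge RNA target-binding loop. Recombination efficiency equals averaged, control-corrected counts per million of recombinant-junction barcodes. It is listed as log10(CPM+1).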

Sequence	recombinant barcode read abundance (log10)
ACGGGACATTGGGTTCTAACCTGTTGCAGAT [ACGGGACCTCT_LTGcore_AT_RTGcore_AT] (site ACGGGACCTCT) (LTG core: AT, RTG core: AT)	0.134
TGTATTCGCTGGGTTCTAACCTGTTGCCTGC [TGTATTCCTAG_LTGcore_GC_RTGcore_GC] (site TGTATTCCTAG) (LTG core: GC, RTG core: GC)	0.312
TCTACCCCATGGGTTCTAACCTGTTGCTGAG [TCTACCCCTCA_LTGcore_CA_RTGcore_CT] (site TCTACCCCTCA) (LTG core: CA, RTG core: CT)	0.806
AAACACACCTGGGTTCTAACCTGTTGCCTAG [AAACACACTAG_LTGcore_CC_RTGcore_CT] (site AAACACACTAG) (LTG core: CC, RTG core: CT)	0.633
ATGCTTTCTTGGGTTCTAACCTGTTGCCTAC [ATGCTTTCTAG_LTGcore_CT_RTGcore_GT] (site ATGCTTTCTAG) (LTG core: CT, RTG core: GT)	0.191
TAGAGGGCTTGGGTTCTAACCTGTTGCGGAG [TAGAGGGCTCC_LTGcore_CT_RTGcore_CT] (site TAGAGGGCTCC) (LTG core: CT, RTG core: CT)	2.86
AGGAGGTATTGGGTTCTAACCTGTTGCCTAG [AGGAGGTCTAG_LTGcore_AT_RTGcore_CT] (site AGGAGGTCTAG) (LTG core: AT, RTG core: CT)	0.214
GGGAGCCCTTGGGTTCTAACCTGTTGCTGAC [GGGAGCCCTCA_LTGcore_CT_RTGcore_GT] (site GGGAGCCCTCA) (LTG core: CT, RTG core: GT)	1.06
ATGCTTTTATGGGTTCTAACCTGTTGCCTTA [ATGCTTTCTAG_LTGcore_TA_RTGcore_TA] (site ATGCTTTCTAG) (LTG core: TA, RTG core: TA)	0.232
TCGCGACCTTGGGTTCTAACCTGTTGCCGCG [TCGCGACCTCG_LTGcore_CT_RTGcore_CG] (site TCGCGACCTCG) (LTG core: CT, RTG core: CG)	0.436
GTCGCCCCGTGGGTTCTAACCTGTTGCTAAG [GTCGCCCCTTA_LTGcore_CG_RTGcore_CT] (site GTCGCCCCTTA) (LTG core: CG, RTG core: CT)	0.325
TGTATTCCTTGGGTTCTAACCTGTTGCCTGA [TGTATTCCTAG_LTGcore_CT_RTGcore_TC] (site TGTATTCCTAG) (LTG core: CT, RTG core: TC)	0.0266
AGGAGGTTATGGGTTCTAACCTGTTGCCTTA [AGGAGGTCTAG_LTGcore_TA_RTGcore_TA] (site AGGAGGTCTAG) (LTG core: TA, RTG core: TA)	0.209
GGACACCAATGGGTTCTAACCTGTTGCCTTT [GGACACCCTAG_LTGcore_AA_RTGcore_AA] (site GGACACCCTAG) (LTG core: AA, RTG core: AA)	0.364
TTATAAAAGTGGGTTCTAACCTGTTGCCTAG [TTATAAACTAG_LTGcore_AG_RTGcore_CT] (site TTATAAACTAG) (LTG core: AG, RTG core: CT)	0.0357
CGAGCCCCTTGGGTTCTAACCTGTTGCTGAG [CGAGCCCCTCA_LTGcore_CT_RTGcore_CT] (site CGAGCCCCTCA) (LTG core: CT, RTG core: CT)	2.65
GCGGGACTGTGGGTTCTAACCTGTTGCCTCA [GCGGGACCTAG_LTGcore_TG_RTGcore_TG] (site GCGGGACCTAG) (LTG core: TG, RTG core: TG)	0.226
GTCGCCCGATGGGTTCTAACCTGTTGCTATC [GTCGCCCCTTA_LTGcore_GA_RTGcore_GA] (site GTCGCCCCTTA) (LTG core: GA, RTG core: GA)	0.103
GGGCGGACTTGGGTTCTAACCTGTTGCGGGG [GGGCGGACTCC_LTGcore_CT_RTGcore_CC] (site GGGCGGACTCC) (LTG core: CT, RTG core: CC)	0.212
GAGGCCTCTTGGGTTCTAACCTGTTGCCACT [GAGGCCTCTTG_LTGcore_CT_RTGcore_AG] (site GAGGCCTCTTG) (LTG core: CT, RTG core: AG)	0.379
GGGCGTGAATGGGTTCTAACCTGTTGCCTAG [GGGCGTGCTAG_LTGcore_AA_RTGcore_CT] (site GGGCGTGCTAG) (LTG core: AA, RTG core: CT)	0.0426
TGATACCCTTGGGTTCTAACCTGTTGCGTAA [TGATACCCTAC_LTGcore_CT_RTGcore_TT] (site TGATACCCTAC) (LTG core: CT, RTG core: TT)	0.882
ATGTCCCCTTGGGTTCTAACCTGTTGCTCAC [ATGTCCCCTGA_LTGcore_CT_RTGcore_GT] (site ATGTCCCCTGA) (LTG core: CT, RTG core: GT)	0.0456

Sequence	recombinant barcode read abundance (log10)
AGTCTTACTTGGGTTCTAACCTGTTGCCACC [AGTCTTACTTG_LTGcore_CT_RTGcore_GG] (site AGTCTTACTTG) (LTG core: CT, RTG core: GG)	0.0199
GAGTCCTCTTGGGTTCTAACCTGTTGCCTGA [GAGTCCTCTAG_LTGcore_CT_RTGcore_TC] (site GAGTCCTCTAG) (LTG core: CT, RTG core: TC)	1.3
AGGCGGTGGTGGGTTCTAACCTGTTGCTTCC [AGGCGGTCTAA_LTGcore_GG_RTGcore_GG] (site AGGCGGTCTAA) (LTG core: GG, RTG core: GG)	0.0144
GGGCGGATTTGGGTTCTAACCTGTTGCGGAA [GGGCGGACTCC_LTGcore_TT_RTGcore_TT] (site GGGCGGACTCC) (LTG core: TT, RTG core: TT)	0.223
GCGCGACGGTGGGTTCTAACCTGTTGCTTAG [GCGCGACCTAA_LTGcore_GG_RTGcore_CT] (site GCGCGACCTAA) (LTG core: GG, RTG core: CT)	0.048
ATGCTTTGATGGGTTCTAACCTGTTGCCTTC [ATGCTTTCTAG_LTGcore_GA_RTGcore_GA] (site ATGCTTTCTAG) (LTG core: GA, RTG core: GA)	0.0368
TGATACCTCTGGGTTCTAACCTGTTGCGTGA [TGATACCCTAC_LTGcore_TC_RTGcore_TC] (site TGATACCCTAC) (LTG core: TC, RTG core: TC)	0.0566
GAGGCCTAGTGGGTTCTAACCTGTTGCCAAG [GAGGCCTCTTG_LTGcore_AG_RTGcore_CT] (site GAGGCCTCTTG) (LTG core: AG, RTG core: CT)	0.106
AGGCCTCCTTGGGTTCTAACCTGTTGCCTTA [AGGCCTCCTAG_LTGcore_CT_RTGcore_TA] (site AGGCCTCCTAG) (LTG core: CT, RTG core: TA)	0.635
TCGCGACTTTGGGTTCTAACCTGTTGCCGAA [TCGCGACCTCG_LTGcore_TT_RTGcore_TT] (site TCGCGACCTCG) (LTG core: TT, RTG core: TT)	0
AGGAGGTAGTGGGTTCTAACCTGTTGCCTCT [AGGAGGTCTAG_LTGcore_AG_RTGcore_AG] (site AGGAGGTCTAG) (LTG core: AG, RTG core: AG)	0.0957
GAGGCCTAATGGGTTCTAACCTGTTGCCAAG [GAGGCCTCTTG_LTGcore_AA_RTGcore_CT] (site GAGGCCTCTTG) (LTG core: AA, RTG core: CT)	0.153
GCGCGACCTTGGGTTCTAACCTGTTGCTTGT [GCGCGACCTAA_LTGcore_CT_RTGcore_AC] (site GCGCGACCTAA) (LTG core: CT, RTG core: AC)	0.0798
CGCGCCCCTTGGGTTCTAACCTGTTGCGGGG [CGCGCCCCTCC_LTGcore_CT_RTGcore_CC] (site CGCGCCCCTCC) (LTG core: CT, RTG core: CC)	0.105
TTATAAAGTTGGGTTCTAACCTGTTGCCTAC [TTATAAACTAG_LTGcore_GT_RTGcore_GT] (site TTATAAACTAG) (LTG core: GT, RTG core: GT)	0.0636
GCGGGACTCTGGGTTCTAACCTGTTGCCTGA [GCGGGACCTAG_LTGcore_TC_RTGcore_TC] (site GCGGGACCTAG) (LTG core: TC, RTG core: TC)	0.135
GGGAGCCACTGGGTTCTAACCTGTTGCTGGT [GGGAGCCCTCA_LTGcore_AC_RTGcore_AC] (site GGGAGCCCTCA) (LTG core: AC, RTG core: AC)	0.222
AAACAGTACTGGGTTCTAACCTGTTGCCTGT [AAACAGTCTAG_LTGcore_AC_RTGcore_AC] (site AAACAGTCTAG) (LTG core: AC, RTG core: AC)	0.114
TCTACCCGATGGGTTCTAACCTGTTGCTGAG [TCTACCCCTCA_LTGcore_GA_RTGcore_CT] (site TCTACCCCTCA) (LTG core: GA, RTG core: CT)	0.208
TCGCGACTCTGGGTTCTAACCTGTTGCCGAG [TCGCGACCTCG_LTGcore_TC_RTGcore_CT] (site TCGCGACCTCG) (LTG core: TC, RTG core: CT)	0.0502
GAGTCCACATGGGTTCTAACCTGTTGCGTTG [GAGTCCACTAC_LTGcore_CA_RTGcore_CA] (site GAGTCCACTAC) (LTG core: CA, RTG core: CA)	0.022
ATGCTTTCCTGGGTTCTAACCTGTTGCCTAG [ATGCTTTCTAG_LTGcore_CC_RTGcore_CT] (site ATGCTTTCTAG) (LTG core: CC, RTG core: CT)	0.0734
